Source: US20250223297A1, “NOVEL RAPAMYCIN DERIVATIVES” (Novartis AG, priority 2017, published 2025)

Experiments:
[1] = tested on: mTORC1 signaling (pS6 Ser240/244) in MEF TSC1−/− cells; test: MEF TSC1-/- cell based assay for rapalog potency (pS6); set-up: species or system mouse; details: 2 h treatment, average from multiple assays
From the text: Potency of mTOR inhibitors may also be determined using a MEF TSC1−/− cell-based assay. MEF TSC1−/− cells are Mouse Embryonic Fibroblasts deficient in the Tuberous sclerosis protein, TSC1, which negatively regulates mTORC1 signaling. Thus, the deficiency of TSC1 induces constitutive mTORC1 activation, resulting in phosphorylation (activation) of the downstream proteins in the mTORC1 signaling pathways. This cell-based assay is used to measure inhibition (de-phosphorylation) of the mTORC1 signaling components S6 and 4EBP1, by rapalogs or other mTOR inhibitors.
The assay is typically carried out as follows: MEF TSC1−/− cells are plated on Poly-D-lysine coated 384 well Griener clear bottom plates and incubated overnight at 37° C., 5% CO2. […] Cells are fixed with 4% paraformaldehyde for 30 min and washed 5 times with TBS-EDTA followed by immuno-staining with florescent tag labeled antibodies for pS6 and p4EBP1. Nuclei are visualized with Hoechst staining. Cells are imaged using respective florescence channels and the potency of mTOR inhibitors is defined by pS6 IC50 (nM).
Cell-based assay for rapalog potency determination. Rapalog potency was determined using MEF TSC1−/− cell based assay. MEF TSC1−/− cells are Mouse Embryonic Fibroblasts deficient in Tuberous sclerosis protein-TSC1, which negatively regulates mTORC1 signaling and thus display constitutive mTORC1 activation, resulting in phosphorylation (activation) of downstream molecules. This cell-based assay is used to measure inhibition (de-phosphorylation) of S6 and 4EBP1 by rapalogs or other mTOR inhibitors.
MEF TSC1−/− cells were plated on Poly-D-lysine coated 384 well Griener clear bottom plates and incubated overnight at 37° C., 5% CO2. […] Nuclei were visualized with Hoechst (ThermoFisher Scientific #H3570) staining. Cells were imaged (InCell 600) using respective fluorescence channels and the potency of mTOR inhibitors was defined by pS6 IC50 (nM).
In vitro potency of mTOR inhibitors was defined by pS6 IC50 (nM) in MEF TSC1−/− cells.
IC50 values are calculated as the average from multiple assays.

FKBP12 = FKBP12 (Homo sapiens (Human), UniProt P62942); test: SPR assay, binding affinity to FKBP12; details: single-cycle kinetics
Chain of FKBP12 (P62942 whole entry, the tested form may be a part): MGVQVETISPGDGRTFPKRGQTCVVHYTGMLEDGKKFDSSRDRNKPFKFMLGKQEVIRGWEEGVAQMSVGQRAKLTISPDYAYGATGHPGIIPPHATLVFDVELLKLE
Method: (§1) SPR Assay to Determine Binding Affinity to FK506-Binding Proteins (FKBP). N-terminal avi-his6 tagged FKBP fusions to FKBP12, FKBP51 and FKBP52 were expressed in E. coli and purified using standard chromatography. Each protein was subsequently immobilized on a streptavidin chip in a Biacore 8K SPR instrument (GE Healthcare). Using single-cycle kinetics, compound titrations were flowed at 45 uL/min over each surface using 2-minute association and 30-minute dissociation phases in a buffer containing 50 mM Tris pH 7.5/150 mM NaCl/0.01% Tween 20/1 mM DTT/2% DMSO. The data was fit using low molecular weight (LMW) single-cycle kinetics. The equilibrium dissociation constants (KD) are reported. […]

FKBP52 = FKBP52 (Homo sapiens (Human), UniProt Q02790); test: SPR assay, binding affinity to FKBP52; details: single-cycle kinetics
Chain of FKBP52 (Q02790 whole entry): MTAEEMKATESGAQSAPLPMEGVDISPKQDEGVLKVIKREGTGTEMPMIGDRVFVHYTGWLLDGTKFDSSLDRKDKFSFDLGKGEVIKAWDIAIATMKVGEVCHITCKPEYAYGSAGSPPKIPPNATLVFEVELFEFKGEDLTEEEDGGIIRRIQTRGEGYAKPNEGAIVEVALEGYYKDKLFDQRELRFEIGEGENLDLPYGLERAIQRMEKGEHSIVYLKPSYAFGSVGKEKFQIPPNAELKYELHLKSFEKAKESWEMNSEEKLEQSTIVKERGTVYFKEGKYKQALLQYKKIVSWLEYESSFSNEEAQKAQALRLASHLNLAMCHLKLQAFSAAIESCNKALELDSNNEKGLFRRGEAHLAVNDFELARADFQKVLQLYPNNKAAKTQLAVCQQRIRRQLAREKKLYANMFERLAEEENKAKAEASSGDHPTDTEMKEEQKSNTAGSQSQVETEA
Method: as §1

[2] = tested on: S6K1 (Thr389) phosphorylation (mTORC1 activity) in WT 293T cells; test: S6K1 (Thr389) phosphorylation ELISA in wild-type 293T cells; type: cell-based; details: 2 h, relative to DMSO
Method: WT, FKBP12 knock-down and FKBP12 knock-out 293T cells were plated at a density of 30,000 cells per well in poly-D-Lysine coated 96-well plates (Corning, #354461) in Dulbecco's modified Eagle's medium (ThermoFisher, #11995-065) supplemented with 10% fetal bovine serum (ThermoFisher, #16140-071). Cells were incubated at 37° C., 5% CO2 for 48 hours until they reached ˜80% confluence. […] Media supplemented with blank Dimethyl sulfoxide (DMSO) was used as a control for both compounds. Phosphorylated amounts of S6K1 (Thr389) were detected by a sandwich ELISA kit (Cell signaling, #7063C) following the manufacture's protocol.
S6K1 is a downstream target of mTORC1 and phosphorylation of its rapalog-sensitive Thr389 site is used as a functional readout of mTORC1 activity. Lee, C. H., Inoki, K. and Guan, K. L. (2007). mTOR pathway as a target in […]. Annu. Rev. Pharmacol. Toxicol. 47. 443-467. […] In FKBP12 knock-out cells. […] Such specificity of Example 2 to FKBP12 may facilitate targeting cells and tissues with relatively high levels of FKBP12 expression, while avoiding (or minimizing) side effects in the tissues where FKBP12 is weakly expressed.

[3] = tested on: S6K1 (Thr389) phosphorylation (mTORC1 activity) in FKBP12 knock-down 293T cells; test: S6K1 (Thr389) phosphorylation ELISA in FKBP12 knock-down 293T cells; type: cell-based; details: 2 h, relative to DMSO
[4] = tested on: S6K1 (Thr389) phosphorylation (mTORC1 activity) in FKBP12 knock-out 293T cells; test: S6K1 (Thr389) phosphorylation ELISA in FKBP12 knock-out 293T cells; type: cell-based; details: 2 h, relative to DMSO

Row | SMILES | IC50 ([1]; Mus musculus, 2 h) [nM] | IC50 [1] [nM] | Kd (FKBP12) [nM] | Kd (FKBP52) [nM] | further results
1 | CO[C@@H]1C[C@H](C[C@@H](C)[C@@H]2CC[C@H](C)/C=C(\C)[C@@H](O)[C@@H](OC)C(=O)[C@H](C)C[C@H](C)/C=C/C=C/C=C(\C)C(N3CCN(CCO)C3=O)C[C@@H]3CC[C@@H](C)[C@@](O)(O3)C(=O)C(=O)N3CCCC[C@H]3C(=O)O2)CC[C@H]1O (single isomer, unassigned) [Example 5] | 153 |  |  |  | 
2 | CO[C@@H]1C[C@H](C[C@@H](C)[C@@H]2CC[C@H](C)/C=C(\C)[C@@H](O)[C@@H](OC)C(=O)[C@H](C)C[C@H](C)/C=C/C=C/C=C(\C)C(N3CCS3(=O)=O)C[C@@H]3CC[C@@H](C)[C@@](O)(O3)C(=O)C(=O)N3CCCC[C@H]3C(=O)O2)CC[C@H]1O (single isomer, unassigned) [Example 6, C16-(1,1-dioxido-1,2-thiazetidin-2-yl)-C32-deoxo-rapamycin] | 0.17 |  |  |  | 
3 | CO[C@@H]1C[C@H](C[C@@H](C)[C@@H]2CC[C@H](C)/C=C(\C)[C@@H](O)[C@@H](OC)C(=O)[C@H](C)C[C@H](C)/C=C/C=C/C=C(\C)C(N3CCS3(=O)=O)C[C@@H]3CC[C@@H](C)[C@@](O)(O3)C(=O)C(=O)N3CCCC[C@H]3C(=O)O2)CC[C@H]1O (single isomer, unassigned) [Example 7, C16-(1,1-dioxido-1,2-thiazetidin-2-yl)-C32-deoxo-rapamycin] |  | 0.3 |  |  | 
4 | CO[C@@H]1C[C@H](C[C@@H](C)[C@@H]2CC[C@H](C)/C=C(\C)[C@@H](O)[C@@H](OC)C(=O)[C@H](C)C[C@H](C)/C=C/C=C/C=C(\C)C(N3CCS3(=O)=O)C[C@@H]3CC[C@@H](C)[C@@](O)(O3)C(=O)C(=O)N3CCCC[C@H]3C(=O)O2)CC[C@H]1OCCO (single isomer, unassigned) [Example 8, C16-(1,1-dioxido-1,2-thiazetidin-2-yl)-C32-deoxo-C40-(2-hydroxyethoxy)-rapamycin] |  | 0.328 |  |  | 
5 | CO[C@@H]1C[C@H](C[C@@H](C)[C@@H]2CC[C@H](C)/C=C(\C)[C@@H](O)[C@@H](OC)C(=O)[C@H](C)C[C@H](C)/C=C/C=C/C=C(\C)C(N3CCS3(=O)=O)C[C@@H]3CC[C@@H](C)[C@@](O)(O3)C(=O)C(=O)N3CCCC[C@H]3C(=O)O2)CC[C@H]1OCCO (single isomer, unassigned) [Example 9, C16-(1,1-dioxido-1,2-thiazetidin-2-yl)-C32-deoxo-C40-(2-hydroxyethoxy)-rapamycin] |  | 1.45 |  |  | 
6 | CO[C@@H]1C[C@H](C[C@@H](C)[C@@H]2CC[C@H](C)/C=C(\C)[C@@H](O)[C@@H](OC)C(=O)[C@H](C)C[C@H](C)/C=C/C=C/C=C(\C)C(N3CCS3(=O)=O)C[C@@H]3CC[C@@H](C)[C@@](O)(O3)C(=O)C(=O)N3CCCC[C@H]3C(=O)O2)CC[C@H]1OP(C)(C)=O (single isomer, unassigned) [Example 10, C16-(1,1-dioxido-1,2-thiazetidin-2-yl)-C32-deoxo-C40-dimethylphosphinyl-rapamycin] |  |  | 1.6 | 176 | 
7 | CO[C@@H]1C[C@H](C[C@@H](C)[C@@H]2CC[C@H](C)/C=C(\C)[C@@H](O)[C@@H](OC)C(=O)[C@H](C)C[C@H](C)/C=C/C=C/C=C(\C)C(N3CCS3(=O)=O)C[C@@H]3CC[C@@H](C)[C@@](O)(O3)C(=O)C(=O)N3CCCC[C@H]3C(=O)O2)CC[C@@H]1n1cnnn1 (single isomer, unassigned) [Example 12] | 0.374 |  |  |  | 
8 | CO[C@@H]1C[C@H](C[C@@H](C)[C@@H]2CC[C@H](C)/C=C(\C)[C@@H](O)[C@@H](OC)C(=O)[C@H](C)C[C@H](C)/C=C/C=C/C=C(\C)C(N3CCS3(=O)=O)C[C@@H]3CC[C@@H](C)[C@@](O)(O3)C(=O)C(=O)N3CCCC[C@H]3C(=O)O2)CC[C@@H]1n1cnnn1 (single isomer, unassigned) [Example 13] |  | 0.656 |  |  | 
9 | CO[C@@H]1C[C@H](C[C@@H](C)[C@@H]2CC[C@H](C)/C=C(\C)[C@@H](O)[C@@H](OC)C(=O)[C@H](C)C[C@H](C)/C=C/C=C/C=C(\C)C(N3CCCS3(=O)=O)C[C@@H]3CC[C@@H](C)[C@@](O)(O3)C(=O)C(=O)N3CCCC[C@H]3C(=O)O2)CC[C@H]1OP(C)(C)=O (single isomer, unassigned) [Example 14, C16-(1,1-dioxidoisothiazolidin-2-yl)-C32-deoxo-C40-dimethylphosphinyl-rapamycin] | 7.77 |  | 16 | 542 | 
10 | CO[C@@H]1C[C@H](C[C@@H](C)[C@@H]2CC[C@H](C)/C=C(\C)[C@@H](O)[C@@H](OC)C(=O)[C@H](C)C[C@H](C)/C=C/C=C/C=C(\C)C(N3CCCS3(=O)=O)C[C@@H]3CC[C@@H](C)[C@@](O)(O3)C(=O)C(=O)N3CCCC[C@H]3C(=O)O2)CC[C@H]1OP(C)(C)=O (single isomer, unassigned) [Example 15, C16-(1,1-dioxidoisothiazolidin-2-yl)-C32-deoxo-C40-dimethylphosphinyl-rapamycin] | 3.2 |  |  |  | 
11 | CO[C@@H]1C[C@H](C[C@@H](C)[C@@H]2CC[C@H](C)/C=C(\C)[C@@H](O)[C@@H](OC)C(=O)[C@H](C)C[C@H](C)/C=C/C=C/C=C(\C)[C@H](N3CCCS3(=O)=O)C[C@@H]3CC[C@@H](C)[C@@](O)(O3)C(=O)C(=O)N3CCCC[C@H]3C(=O)O2)CC[C@H]1OCCO [Example 16] |  |  | 35 | 4070 | 
12 | CO[C@H]1C[C@@H]2CC[C@@H](C)[C@@](O)(O2)C(=O)C(=O)N2CCCC[C@H]2C(=O)O[C@H]([C@H](C)C[C@@H]2CC[C@@H](OCCO)[C@H](OC)C2)CC(=O)[C@H](C)/C=C(\C)[C@@H](O)[C@@H](OC)C(=O)[C@H](C)C[C@H](C)/C=C/C=C/C=C/1C [RAD001, everolimus, reference compound] |  |  | 500 | 1760 | inhibition of S6K1 (Thr389) [2]: ~80%; maximum inhibition of S6K1 (Thr389) [3]: ~70%; inhibition of S6K1 (Thr389) phosphorylation [4]: > 60%
